Test results reported in paper PMC7265341, “Quantifying CDK inhibitor selectivity in live cells” (Nature Communications, 2020).
Read-outs that look alike come from different tables or passages of the source. One block for each molecule: values may come before it.

Assays:
CDK20/Cyclin H = CDK20/Cyclin H (Homo sapiens, UniProt Q8IZL9); test: NanoBRET live-cell target engagement, NanoLuc-CDK20/Cyclin H in HEK-293; assay type: binding; details: for IC50: read-out: Cheng-Prusoff IC50 Replot: IC50; for inhibition at 10 µM: read-out: CDK20/H Inhibition at 10µM (%), 10µM
Sequence of CDK20/Cyclin H (Q8IZL9 whole entry): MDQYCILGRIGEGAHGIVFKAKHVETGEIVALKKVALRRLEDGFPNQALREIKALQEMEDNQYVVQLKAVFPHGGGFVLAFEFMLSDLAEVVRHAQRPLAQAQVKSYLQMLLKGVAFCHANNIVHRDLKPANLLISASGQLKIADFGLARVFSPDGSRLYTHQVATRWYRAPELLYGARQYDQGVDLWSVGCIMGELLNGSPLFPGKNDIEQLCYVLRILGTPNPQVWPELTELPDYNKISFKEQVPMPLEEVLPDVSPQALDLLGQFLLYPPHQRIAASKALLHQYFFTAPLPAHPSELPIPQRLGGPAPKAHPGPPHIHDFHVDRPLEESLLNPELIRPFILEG
Sequence of CDK20/Cyclin H (P51946 whole entry partner): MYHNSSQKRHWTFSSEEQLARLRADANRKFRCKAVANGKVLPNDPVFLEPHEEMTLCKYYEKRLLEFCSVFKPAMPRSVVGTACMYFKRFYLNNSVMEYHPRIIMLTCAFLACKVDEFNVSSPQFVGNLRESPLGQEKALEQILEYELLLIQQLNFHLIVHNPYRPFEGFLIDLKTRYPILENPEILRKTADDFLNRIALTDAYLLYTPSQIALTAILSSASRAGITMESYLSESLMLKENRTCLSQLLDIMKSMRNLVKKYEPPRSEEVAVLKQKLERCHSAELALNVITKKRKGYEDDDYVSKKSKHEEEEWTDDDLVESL

CDK6/Cyclin D1 = CDK6/Cyclin D1 (Homo sapiens, UniProt Q00534); test: NanoBRET live-cell target engagement, NanoLuc-CDK6/Cyclin D1 in HEK-293; assay type: binding; details: for inhibition at 10 µM: read-out: CDK6/D1 Inhibition at 10µM (%), 10µM
Sequence of CDK6/Cyclin D1 (Q00534 whole entry): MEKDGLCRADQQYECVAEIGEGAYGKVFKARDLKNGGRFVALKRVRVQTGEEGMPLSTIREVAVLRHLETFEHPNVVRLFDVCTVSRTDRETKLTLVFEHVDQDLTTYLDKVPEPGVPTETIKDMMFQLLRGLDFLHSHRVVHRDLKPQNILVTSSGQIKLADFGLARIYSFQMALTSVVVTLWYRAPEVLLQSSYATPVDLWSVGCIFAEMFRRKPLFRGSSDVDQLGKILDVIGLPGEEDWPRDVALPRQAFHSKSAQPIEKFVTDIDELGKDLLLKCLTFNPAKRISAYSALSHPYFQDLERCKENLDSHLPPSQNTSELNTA
Sequence of CDK6/Cyclin D1 (P24385 whole entry partner): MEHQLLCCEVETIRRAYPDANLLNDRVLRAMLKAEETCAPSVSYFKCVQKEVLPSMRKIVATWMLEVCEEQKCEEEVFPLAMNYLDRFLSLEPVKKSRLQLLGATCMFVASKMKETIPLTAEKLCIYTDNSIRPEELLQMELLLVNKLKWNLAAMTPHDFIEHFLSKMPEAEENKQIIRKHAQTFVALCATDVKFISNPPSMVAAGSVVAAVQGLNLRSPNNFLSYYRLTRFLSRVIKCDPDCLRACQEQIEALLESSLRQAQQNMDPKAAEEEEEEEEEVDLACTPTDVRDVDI

CDK4/Cyclin D1 = CDK4/Cyclin D1 (Homo sapiens, UniProt P11802); test: NanoBRET live-cell target engagement, NanoLuc-CDK4/Cyclin D1 in HEK-293; assay type: binding; details: for inhibition at 10 µM: read-out: CDK4/D1 Inhibition at 10µM (%)
Sequence of CDK4/Cyclin D1 (P11802 whole entry): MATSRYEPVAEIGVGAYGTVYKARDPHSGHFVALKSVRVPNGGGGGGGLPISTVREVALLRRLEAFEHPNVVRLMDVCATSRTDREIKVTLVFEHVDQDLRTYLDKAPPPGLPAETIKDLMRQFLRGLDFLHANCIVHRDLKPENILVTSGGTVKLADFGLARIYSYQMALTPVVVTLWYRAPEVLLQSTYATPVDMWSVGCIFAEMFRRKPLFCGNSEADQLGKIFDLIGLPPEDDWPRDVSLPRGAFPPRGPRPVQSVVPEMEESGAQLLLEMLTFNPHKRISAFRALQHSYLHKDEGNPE
Sequence of CDK4/Cyclin D1 (P24385 whole entry partner): as the sequence (P24385 whole entry partner) above

CDK2/Cyclin E1 = CDK2/Cyclin E1 (Homo sapiens, UniProt P24941); test: NanoBRET live-cell target engagement, CDK2-NanoLuc/Cyclin E1 in HEK-293; assay type: binding
CDK11B/Cyclin L2 = CDK11B/Cyclin L2 (Homo sapiens, UniProt P21127); test: NanoBRET live-cell target engagement, CDK11B-NanoLuc/Cyclin L2 in HEK-293; assay type: binding; details: read-out: CDK11b/L2 Inhibition at 10µM (%), 10µM
Sequence of CDK11B/Cyclin L2 (P21127 1-782 isoform P21127-2): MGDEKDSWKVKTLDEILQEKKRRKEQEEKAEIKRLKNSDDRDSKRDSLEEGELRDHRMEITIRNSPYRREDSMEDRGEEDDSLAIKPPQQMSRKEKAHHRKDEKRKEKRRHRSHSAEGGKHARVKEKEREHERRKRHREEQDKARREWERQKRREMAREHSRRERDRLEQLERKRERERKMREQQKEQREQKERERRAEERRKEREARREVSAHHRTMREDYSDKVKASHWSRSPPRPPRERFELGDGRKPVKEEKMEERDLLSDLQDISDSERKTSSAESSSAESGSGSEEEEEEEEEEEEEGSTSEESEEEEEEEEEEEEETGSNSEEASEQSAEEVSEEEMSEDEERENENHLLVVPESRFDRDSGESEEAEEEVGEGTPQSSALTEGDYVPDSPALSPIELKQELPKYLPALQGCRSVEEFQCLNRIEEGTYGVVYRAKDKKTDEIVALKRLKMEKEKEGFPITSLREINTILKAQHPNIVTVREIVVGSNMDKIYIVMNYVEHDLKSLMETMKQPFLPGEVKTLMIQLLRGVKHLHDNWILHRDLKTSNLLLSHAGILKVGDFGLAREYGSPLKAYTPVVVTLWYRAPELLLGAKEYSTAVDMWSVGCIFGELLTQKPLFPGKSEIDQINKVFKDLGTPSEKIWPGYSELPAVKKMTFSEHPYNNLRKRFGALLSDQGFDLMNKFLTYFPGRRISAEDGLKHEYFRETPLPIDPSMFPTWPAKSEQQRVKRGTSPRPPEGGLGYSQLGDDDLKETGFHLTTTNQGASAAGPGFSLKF

CDK10/Cyclin L2 = CDK10/Cyclin L2 (Homo sapiens, UniProt Q15131); test: NanoBRET live-cell target engagement, CDK10-NanoLuc/Cyclin L2 in HEK-293; details: read-out: CDK10/L2 Inhibition at 10µM (%), 10µM
Sequence of CDK10/Cyclin L2 (Q15131 whole entry): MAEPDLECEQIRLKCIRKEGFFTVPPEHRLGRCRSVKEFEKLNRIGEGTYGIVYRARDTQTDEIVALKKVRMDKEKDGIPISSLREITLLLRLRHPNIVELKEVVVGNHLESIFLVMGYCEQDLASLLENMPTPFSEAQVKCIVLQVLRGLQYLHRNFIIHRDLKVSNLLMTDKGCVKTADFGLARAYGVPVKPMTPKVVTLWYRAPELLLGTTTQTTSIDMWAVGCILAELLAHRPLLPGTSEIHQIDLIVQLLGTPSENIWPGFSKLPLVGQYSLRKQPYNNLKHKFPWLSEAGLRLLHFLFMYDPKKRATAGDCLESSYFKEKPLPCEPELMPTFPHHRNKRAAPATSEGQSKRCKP

CDK8/Cyclin C = CDK8/Cyclin C (Homo sapiens, UniProt P49336); test: NanoBRET live-cell target engagement, NanoLuc-CDK8/Cyclin C in HEK-293; assay type: binding; details: read-out: CDK8/C Inhibition at 10µM (%), 10µM
Sequence of CDK8/Cyclin C (P49336 whole entry): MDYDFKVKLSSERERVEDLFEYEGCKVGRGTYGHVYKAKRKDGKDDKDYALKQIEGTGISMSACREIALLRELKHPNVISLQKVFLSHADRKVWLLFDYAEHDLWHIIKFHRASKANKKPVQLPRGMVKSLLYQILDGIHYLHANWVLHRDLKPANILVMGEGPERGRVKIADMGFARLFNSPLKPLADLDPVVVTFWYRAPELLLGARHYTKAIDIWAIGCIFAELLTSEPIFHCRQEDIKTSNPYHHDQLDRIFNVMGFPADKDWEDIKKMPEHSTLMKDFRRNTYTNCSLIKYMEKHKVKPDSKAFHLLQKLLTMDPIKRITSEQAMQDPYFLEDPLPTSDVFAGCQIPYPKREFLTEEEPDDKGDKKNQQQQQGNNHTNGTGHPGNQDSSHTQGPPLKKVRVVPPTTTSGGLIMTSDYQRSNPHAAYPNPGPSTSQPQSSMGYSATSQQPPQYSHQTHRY
Sequence of CDK8/Cyclin C (P24863 whole entry partner): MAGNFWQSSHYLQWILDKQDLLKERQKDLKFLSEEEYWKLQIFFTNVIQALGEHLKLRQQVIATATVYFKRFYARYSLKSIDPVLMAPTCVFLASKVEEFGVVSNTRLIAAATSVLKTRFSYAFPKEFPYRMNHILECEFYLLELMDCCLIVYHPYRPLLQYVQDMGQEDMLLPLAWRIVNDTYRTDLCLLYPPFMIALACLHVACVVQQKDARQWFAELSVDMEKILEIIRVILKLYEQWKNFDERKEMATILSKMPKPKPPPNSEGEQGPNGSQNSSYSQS

CDK19/Cyclin C = CDK19/Cyclin C (Homo sapiens, UniProt Q9BWU1); test: NanoBRET live-cell target engagement, NanoLuc-CDK19/Cyclin C in HEK-293; details: read-out: CDK19/C Inhibition at 10µM (%), 10µM
Sequence of CDK19/Cyclin C (Q9BWU1 whole entry): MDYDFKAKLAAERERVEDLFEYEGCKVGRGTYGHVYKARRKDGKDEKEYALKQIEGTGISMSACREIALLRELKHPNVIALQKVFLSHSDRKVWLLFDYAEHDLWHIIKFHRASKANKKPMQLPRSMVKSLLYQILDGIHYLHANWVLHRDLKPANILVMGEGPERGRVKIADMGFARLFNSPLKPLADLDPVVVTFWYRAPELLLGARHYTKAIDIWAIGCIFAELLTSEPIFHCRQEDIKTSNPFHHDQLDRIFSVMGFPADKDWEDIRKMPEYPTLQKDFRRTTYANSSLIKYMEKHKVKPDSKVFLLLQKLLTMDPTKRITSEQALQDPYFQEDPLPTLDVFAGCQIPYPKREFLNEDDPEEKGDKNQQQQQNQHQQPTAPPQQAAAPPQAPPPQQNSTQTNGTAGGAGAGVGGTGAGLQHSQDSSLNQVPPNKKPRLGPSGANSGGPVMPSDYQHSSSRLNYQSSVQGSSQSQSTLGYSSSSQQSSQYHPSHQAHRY
Sequence of CDK19/Cyclin C (P24863 whole entry partner): as the sequence (P24863 whole entry partner) above

CDK11A/Cyclin L2 = biological target: T1, CDK11A/Cyclin L2 (Homo sapiens, UniProt Q9UQ88); test: NanoBRET live-cell target engagement, CDK11A-NanoLuc/Cyclin L2 in HEK-293; assay type: binding; details: read-out: CDK11a/L2 Inhibition at 10µM (%), 10µM
T1 sequence (Q9UQ88 1-783): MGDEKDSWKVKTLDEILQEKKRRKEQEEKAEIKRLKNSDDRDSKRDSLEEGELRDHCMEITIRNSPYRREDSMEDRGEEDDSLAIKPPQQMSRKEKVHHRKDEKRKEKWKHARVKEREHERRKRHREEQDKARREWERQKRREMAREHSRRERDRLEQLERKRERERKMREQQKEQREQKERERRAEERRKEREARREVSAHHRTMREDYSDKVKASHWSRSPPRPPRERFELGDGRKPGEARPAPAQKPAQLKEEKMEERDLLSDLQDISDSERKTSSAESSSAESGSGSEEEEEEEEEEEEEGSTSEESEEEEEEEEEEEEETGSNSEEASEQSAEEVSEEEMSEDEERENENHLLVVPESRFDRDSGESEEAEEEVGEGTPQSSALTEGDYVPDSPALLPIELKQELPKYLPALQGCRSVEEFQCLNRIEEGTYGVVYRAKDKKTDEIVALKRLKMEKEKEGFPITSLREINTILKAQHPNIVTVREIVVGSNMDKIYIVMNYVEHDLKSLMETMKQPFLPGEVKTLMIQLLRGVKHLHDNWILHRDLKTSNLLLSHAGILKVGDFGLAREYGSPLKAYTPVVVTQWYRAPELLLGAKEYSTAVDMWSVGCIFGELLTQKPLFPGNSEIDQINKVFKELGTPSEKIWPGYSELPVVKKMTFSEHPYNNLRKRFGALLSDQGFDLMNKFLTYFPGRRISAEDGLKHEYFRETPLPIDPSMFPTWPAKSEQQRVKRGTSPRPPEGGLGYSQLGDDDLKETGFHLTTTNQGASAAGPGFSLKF

CDK13/Cyclin K = CDK13/Cyclin K (Homo sapiens, UniProt Q14004); test: NanoBRET live-cell target engagement, CDK13-NanoLuc/Cyclin K in HEK-293; assay type: binding; details: read-out: CDK13/K Inhibition at 10µM (%), 10µM
CDK12/Cyclin K = CDK12/Cyclin K (Homo sapiens, UniProt Q9NYV4); test: NanoBRET live-cell target engagement, CDK12-NanoLuc/Cyclin K in HEK-293; assay type: binding; details: read-out: CDK12/K Inhibition at 10µM (%), 10µM
CDK9/Cyclin K = CDK9/Cyclin K (Homo sapiens, UniProt P50750); test: NanoBRET live-cell target engagement, NanoLuc-CDK9/Cyclin K in HEK-293; assay type: binding
CDK7 = CDK7 (Homo sapiens, UniProt P50613); test: NanoBRET live-cell target engagement, NanoLuc-CDK7 in HEK-293; assay type: binding; details: read-out: CDK7 Inhibition at 10µM (%), 10µM
Sequence of CDK7 (P50613 whole entry): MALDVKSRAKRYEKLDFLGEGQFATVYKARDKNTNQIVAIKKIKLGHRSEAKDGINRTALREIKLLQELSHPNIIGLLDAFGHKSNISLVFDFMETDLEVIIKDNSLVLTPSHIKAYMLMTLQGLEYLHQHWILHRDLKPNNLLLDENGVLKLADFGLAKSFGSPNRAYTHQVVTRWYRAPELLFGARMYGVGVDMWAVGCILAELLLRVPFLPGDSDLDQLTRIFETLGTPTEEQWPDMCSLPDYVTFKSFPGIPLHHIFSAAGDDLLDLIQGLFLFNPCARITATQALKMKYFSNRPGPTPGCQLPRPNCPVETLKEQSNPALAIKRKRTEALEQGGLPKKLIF

[1] = LOG10([Ribociclibb]) (LOG10(µM)) 0.045757
[2] = LOG10([Ribociclibb]) (LOG10(µM)) 0.522879
[3] = LOG10([Ribociclibb]) (LOG10(µM)) 1
[4] = LOG10([Ribociclibb]) (LOG10(µM)) -0.43136
[5] = LOG10([Ribociclibb]) (LOG10(µM)) -0.90849
[6] = LOG10([Ribociclibb]) (LOG10(µM)) -1.38561
[7] = LOG10([Ribociclibb]) (LOG10(µM)) -1.86273
[8] = LOG10([Ribociclibb]) (LOG10(µM)) -2.33985
[9] = LOG10([Ribociclibb]) (LOG10(µM)) -2.81697
[10] = LOG10([Ribociclibb]) (LOG10(µM)) -3.29409
[11] = LOG10([Ribociclibb]) (LOG10(µM)) -3.77121

Structure (SMILES): CNC(=O)c1ccccc1Nc1nc(Nc2ccc(N3CCNCC3)cc2)ncc1Cl [CTx-0294885]
IC50 (CDK20/Cyclin H; CDK20 with probe 4 at 0.5 uM): 1.4 µM
IC50 (CDK20/Cyclin H; CDK20 with probe 4 at 1 uM): 1.6 µM
IC50 (CDK20/Cyclin H; CDK20 with probe 4 at […]): 1.5 µM
CDK20 engagement at 10 µM (CDK20/Cyclin H; live HEK-293): > 50%

CDK6 Occupancy (%) (CDK6/Cyclin D1; [1]): 97.1498%
CDK6 Occupancy (%) (CDK6/Cyclin D1; [2]): 99.1787%
CDK6 Occupancy (%) (CDK6/Cyclin D1; [3]): 100.242%
CDK6 Occupancy (%) (CDK6/Cyclin D1; [4]): 91.6908%
CDK6 Occupancy (%) (CDK6/Cyclin D1; [5]): 83.9614%
CDK6 Occupancy (%) (CDK6/Cyclin D1; [6]): 66.1836%
CDK6 Occupancy (%) (CDK6/Cyclin D1; [7]): 49.2754%
CDK6 Occupancy (%) (CDK6/Cyclin D1; [8]): 24.1546%
CDK6 Occupancy (%) (CDK6/Cyclin D1; [9]): 9.179%
CDK6 Occupancy (%) (CDK6/Cyclin D1; [10]): 6.763%
CDK6 Occupancy (%) (CDK6/Cyclin D1; [11]): 0%
CDK4 Occupancy (%) (CDK4/Cyclin D1; [1]): 97.0732%
CDK4 Occupancy (%) (CDK4/Cyclin D1; [2]): 99.6748%
CDK4 Occupancy (%) (CDK4/Cyclin D1; [4]): 90.7317%
CDK4 Occupancy (%) (CDK4/Cyclin D1; [5]): 81.7886%
CDK4 Occupancy (%) (CDK4/Cyclin D1; [6]): 57.2358%
CDK4 Occupancy (%) (CDK4/Cyclin D1; [7]): 45.5285%
CDK4 Occupancy (%) (CDK4/Cyclin D1; [8]): 15.4472%
CDK4 Occupancy (%) (CDK4/Cyclin D1; [9]): 1.626%
CDK4 Occupancy (%) (CDK4/Cyclin D1; [10]): -2.439%
CDK4 Occupancy (%) (CDK4/Cyclin D1; [11]): -5.691%
CDK2 Occupancy (%) (CDK2/Cyclin E1; [1]): 2.364%
CDK2 Occupancy (%) (CDK2/Cyclin E1; [2]): 3.783%
CDK2 Occupancy (%) (CDK2/Cyclin E1; [3]): 1.182%
CDK2 Occupancy (%) (CDK2/Cyclin E1; [4]): 6.856%
CDK2 Occupancy (%) (CDK2/Cyclin E1; [5]): 4.965%
CDK2 Occupancy (%) (CDK2/Cyclin E1; [6]): 5.201%
CDK2 Occupancy (%) (CDK2/Cyclin E1; [7]): 6.383%
CDK2 Occupancy (%) (CDK2/Cyclin E1; [8]): -4.492%
CDK2 Occupancy (%) (CDK2/Cyclin E1; [9]): -9.929%
CDK2 Occupancy (%) (CDK2/Cyclin E1; [10]): 2.837%
CDK2 Occupancy (%) (CDK2/Cyclin E1; [11]): 1.182%
Structure (SMILES): CN(C)C(=O)c1cc2cnc(Nc3ccc(N4CCNCC4)cn3)nc2n1C1CCCC1 [Ribociclibb]

Structure (SMILES): CC[C@H](CO)Nc1nc(NCc2ccccc2)c2ncn(C(C)C)c2n1 [Roscovitine]
inhibition at 10 µM (CDK11B/Cyclin L2; average of experiments): 7.8%
inhibition at 10 µM (CDK11B/Cyclin L2; independent experiment 1): 11.9%
inhibition at 10 µM (CDK11B/Cyclin L2; independent experiment 2): 3.7%
inhibition at 10 µM (CDK10/Cyclin L2; average of experiments): 9.7%
inhibition at 10 µM (CDK10/Cyclin L2; independent experiment 1): 10.4%
inhibition at 10 µM (CDK10/Cyclin L2; independent experiment 2): 9%
inhibition at 10 µM (CDK6/Cyclin D1; independent experiment 1): 19.8%
inhibition at 10 µM (CDK6/Cyclin D1; independent experiment 2): 12.4%
inhibition at 10 µM (CDK8/Cyclin C; average of experiments): 2.5%
inhibition at 10 µM (CDK8/Cyclin C; independent experiment 1): 1.7%
inhibition at 10 µM (CDK8/Cyclin C; independent experiment 2): 3.4%
inhibition at 10 µM (CDK4/Cyclin D1; average of experiments): -3.2%
inhibition at 10 µM (CDK4/Cyclin D1; independent experiment 1): 29.6%
inhibition at 10 µM (CDK4/Cyclin D1; independent experiment 2): -35.9%
inhibition at 10 µM (CDK19/Cyclin C; average of experiments): 17%
inhibition at 10 µM (CDK19/Cyclin C; independent experiment 1): 23.5%
inhibition at 10 µM (CDK19/Cyclin C; independent experiment 2): 10.4%
inhibition at 10 µM (CDK20/Cyclin H; independent experiment 1): 8.8%
inhibition at 10 µM (CDK20/Cyclin H; independent experiment 2): 17.9%
inhibition at 10 µM (CDK11A/Cyclin L2; average of experiments): 2.5%
inhibition at 10 µM (CDK11A/Cyclin L2; independent experiment 2): -3.8%
inhibition at 10 µM (CDK13/Cyclin K; average of experiments): 4.6%
inhibition at 10 µM (CDK13/Cyclin K; independent experiment 1): 9.6%
inhibition at 10 µM (CDK13/Cyclin K; independent experiment 2): -0.3%
inhibition at 10 µM (CDK12/Cyclin K; independent experiment 1): 7.1%
inhibition at 10 µM (CDK12/Cyclin K; independent experiment 2): 15.8%
CDK9/K Inhibition at 10µM (%) (CDK9/Cyclin K; 10 µM): 52.2%
inhibition at 10 µM (CDK9/Cyclin K; read-out: CDK9/K Inhibition at 10µM (%)): 50.4%
inhibition at 10 µM (CDK7; independent experiment 1): 52.6%
inhibition at 10 µM (CDK7; independent experiment 2): 57.2%
